The series is described as follows: photoluminescence quantum yield (fraction); solvent given as SMILES.
Where [1] appears, read: in c1cc(-n2c3ccccc3c3ccccc32)cc(-n2c3ccccc3c3ccccc32)c1.

Values joined by “and” are separate entries in the source; they are usually repeats but may differ in a detail not shown here. Identical values can stand only once.

For the compound `F[B-]1(F)n2c(nc(-c3ccccc3)c2-c2ccccc2)-c2cccc[n+]21`, the photoluminescence quantum yield (in C1CCCCC1) is 0.34; the photoluminescence quantum yield (in C1CCOC1) came to 0.17; the photoluminescence quantum yield (in C1COCCO1) came to 0.26; the photoluminescence quantum yield (in CC#N) is 0.1 and 0.19; the photoluminescence quantum yield (in CCCCCC) is 0.22 and 0.3; the photoluminescence quantum yield (in CO) is 0.12 and 0.1. Besides, the photoluminescence quantum yield runs as follows: (in ClC(Cl)Cl) 0.23 and 0.3; (in ClCCl) 0.15.

Under “in CC#N”, `O=C(O)c1ccc(-c2nc(-c3ccccc3)c3c4ccccc4ccn23)cc1` gave a photoluminescence quantum yield of 0.38.

Turning to `F[B-]1(F)n2c(-c3ccccc3)cc(-c3cccs3)c2N=C2C(c3cccs3)=CC(c3ccccc3)=[N+]21`, the photoluminescence quantum yield (in ClCCl) is 0.1.

As for `Cn1c(=O)c(/N=N/c2cc(S(=O)(=O)O)ccc2C(=O)O)c(O)c2ccccc21`, the photoluminescence quantum yield (in CS(C)=O) was found to be 0.06.

Take `O=Cc1ccc(C2=C3C=c4c(oc5ccccc45)=[N+]3[B-](F)(F)n3c2cc2c4ccccc4oc23)cc1`: the photoluminescence quantum yield runs as follows: (in C1CCCCC1) 0.63; (in C1CCOC1) 0.42; (in CC#N) 0.37; (in CCOC(C)=O) 0.39; (in CN(C)C=O) 0.45; (in CO) 0.44. Moreover, the photoluminescence quantum yield is, setting by setting: (in Cc1ccccc1) 0.53; (in ClCCl) 0.5.

Take `COc1ccc2n1[B-](F)(F)[N+]1=C(SC#N)C=CC1=C2c1ccccc1`: the photoluminescence quantum yield runs as follows: (in CC#N) 0.05; (in CCCCCC) 0.08; (in CCOC(C)=O) 0.04; (in CO) 0.05; (in ClCCl) 0.07.

`CCOC(=O)c1[nH]c(C)c(/C=C/c2c(I)c(C)c3n2[B-](F)(F)[N+]2=C(C)C(I)=C(C)C2=C3c2cc(OC)cc(OC)c2)c1C` came in with a photoluminescence quantum yield (in C1CCOC1) of 0.22, a photoluminescence quantum yield (in CS(C)=O) of 0.23 and a photoluminescence quantum yield (in ClCCl) of 0.21.

Take `COc1cc(-c2cnc(-c3ccncc3)o2)cc(OC)c1OC`: the photoluminescence quantum yield (in ClCCl) came to 0.76.

On to `Cn1c2ccccc2c2c1c1ccccc1n2C`, for which, where the note is “in CCCO”, the photoluminescence quantum yield was 0.81.

`CN(C)c1ccc(-c2nc(-c3ccccc3)c3ccccn23)cc1` displayed a photoluminescence quantum yield (in ClCCl) of 0.12.

Compound `CC(C)(C)c1ccc2c(c1)c1cc(C(C)(C)C)ccc1n2-c1ccc(-c2ccc3c(c2)C2(c4cc(-c5ccc(-n6c7ccc(C(C)(C)C)cc7c7cc(C(C)(C)C)ccc76)cc5)ccc4-3)c3ccccc3S(=O)(=O)c3ccccc32)cc1` came in with a photoluminescence quantum yield (in ClCCl) of 0.88 and a photoluminescence quantum yield under setting [1] of 0.83.

Take `Oc1ccc(C2=[N+]3C(=C(c4ccccc4)c4cccn4[B-]3(F)F)C=C2)cc1`: the photoluminescence quantum yield (in ClC(Cl)Cl) came out at 0.06.

As for `CC1(C)c2ccccc2N(c2ccc(-c3ccc(C#N)c(C#N)n3)cc2)c2ccccc21`, the photoluminescence quantum yield is, setting by setting: (in Cc1ccccc1) 0.489; (in N#Cc1ccc2c(c1)c1ccccc1n2-c1cccc(-n2c3ccccc3c3ccccc32)c1) 0.904.

Regarding `c1ccc(N(c2ccccc2)c2ccc3c(ccc4nc5ccc6cc(N(c7ccccc7)c7ccccc7)ccc6c5nc43)c2)cc1`, the photoluminescence quantum yield reads like this: (in C1CCCCC1) 0.56; (in C1CCOC1) 0.59; (in CN(C)C=O) 0.34; (in Cc1ccccc1) 0.44; (in ClCCl) 0.64.

Turning to `C[Si](C)(c1ccc2cc3ccccc3cc2c1)[Si](C)(C)c1ccc2cc3ccccc3cc2c1`, the photoluminescence quantum yield is, setting by setting: (in C1CCCCC1) 0.18; (in CC#N) 0.04.

In turn, `CC1=CC(C)=[N+]2C1=C(c1ccc(-c3c4ccccc4c(-c4ccccc4)c4ccccc34)cc1)c1c(C)cc(C)n1[B-]2(F)F` came in with a photoluminescence quantum yield (in CC#N) of 0.11; a photoluminescence quantum yield (in CCCCCC) of 0.7; a photoluminescence quantum yield (in CCO) of 0.37; a photoluminescence quantum yield (in CN(C)C=O) of 0.13; a photoluminescence quantum yield (in Cc1ccccc1) of 0.65; a photoluminescence quantum yield (in ClCCl) of 0.57.

Take `c1cc(-c2c3ccccc3c(-c3ccc4ccccc4c3)c3ccccc23)cc(-n2c3ccccc3c3ccccc32)c1`: under “in ClCCl”, the photoluminescence quantum yield turned out to be 0.73.

Regarding `CCCCCCOc1ccc(-c2cnc(-c3nnc(-c4ccc(OCCCCCC)cc4)o3)o2)cc1`, the photoluminescence quantum yield came to 0.82 (in C1CCCCC1); 0.57 (in C1CCOC1); 0.75 (in CC#N); 0.8 (in CCO); 0.65 (in CO); 0.49 (in ClC(Cl)Cl).

`Cc1cc(C)c(C2=C(c3c(C)sc(-c4ccc(-c5nc(-c6ccccc6)c(-c6ccccc6)[nH]5)cc4)c3C)C(F)(F)C(F)(F)C2(F)F)s1` came in with a photoluminescence quantum yield (in C1CCOC1) of 0.091.

For the compound `C[C@@]12SC(Cl)=CC1=c1nc(-c3ccccc3)[nH]c1=C1C=C(Cl)S[C@]12C`, the photoluminescence quantum yield (in CC#N) came out at 0.014.

Consider `c1ccc(-c2ccc(-c3ccc4c(c3)CCO4)cc2)cc1`, for which the photoluminescence quantum yield (in C1CCCCC1) came to 0.66.

On to `Cn1c2nc(=O)[nH]c(=O)c-2nc2ccccc21`, for which, for the setting “in CC1CCCO1”, the photoluminescence quantum yield was found to be 0.3.

Regarding `O=C1/C(=C\c2ccc(N(c3ccccc3)c3ccccc3)cc2)S(=O)(=O)c2ccccc21`, the photoluminescence quantum yield reads like this: (in C1CCOC1) 0.037; (in C1COCCO1) 0.324; (in CC#N) 0.002; (in CC(C)=O) 0.003; (in CCOC(C)=O) 0.036; (in CN(C)C=O) 0.024. Further, the photoluminescence quantum yield was 0.021 (in CO); 0.032 (in CS(C)=O); 0.559 (in Cc1ccccc1); 0.142 (in ClC(Cl)Cl); 0.022 (in ClCCl).

For the compound `CCn1c2ccc(-c3cccs3)cc2c2cc(-c3cccs3)ccc21`, the photoluminescence quantum yield (in ClCCl) is 0.047.

Take `F[B-]1(F)n2c(cc(Br)c2Br)C(c2ccccc2)=C2C=C(Br)C(c3ccc[nH]3)=[N+]21`: the photoluminescence quantum yield (in ClC(Cl)Cl) is 0.47.

`CCN(CC)c1ccc(-c2cc3c(s2)c(C(=O)OC)cc(=O)n3C)cc1`: the photoluminescence quantum yield came out at 0.97 (in C1CCOC1); 0.08 (in CC#N); 0.04 (in CCO); 0.16 (in CN(C)C=O); 0.1 (in CS(C)=O); 0.98 (in Cc1ccccc1). Besides, the photoluminescence quantum yield is 0.99 (in ClC(Cl)Cl) and 0.91 (in ClCCl).

Take `COCCOCCOCCN1C(=O)c2cc(NCCOCCO)c3c4c(cc(NCCOCCO)c(c24)C1=O)C(=O)N(CCOCCOCCOC)C3=O`: the photoluminescence quantum yield came out at 0.37 (in CO), 0.56 (in ClC(Cl)Cl) and 0.031 (in O).

In turn, `CCCCCCc1cc2c(s1)-c1sc(CCCCCC)cc1P(c1ccccc1)(c1ccccc1)=[O+][B-]2(c1c(C)cc(C)cc1C)c1c(C)cc(C)cc1C` showed a photoluminescence quantum yield (in C1CCOC1) of 0.06.

In the case of `COc1cc(C2=CC3=C(c4c(C)cc(C)cc4C)c4cc(-c5cc(OC)c(OC)c(OC)c5)c(-c5cc(OC)c(OC)c(OC)c5)n4[B-](F)(F)[N+]3=C2c2cc(OC)c(OC)c(OC)c2)cc(OC)c1OC`, the photoluminescence quantum yield is, setting by setting: (in C1CCCCC1) 0.33; (in C1CCOC1) 0.08; (in CC#N) 0.02; (in Cc1ccccc1) 0.16; (in ClCCl) 0.05.

The compound `C[n+]1ccn(CCCCc2ccc3c(c2)c2ccccc2n3-c2cc(C#N)c(C#N)cc2F)c1` had a photoluminescence quantum yield (in CC#N) of 0.029.

The compound `COC(=O)c1ccc(/C=C2\N=C(c3ccc(OC)c(OC)c3)OC2=O)cc1` registered a photoluminescence quantum yield (in C1COCCO1) of 0.348.

The compound `c1ccc(-c2nc(-c3ccccc3)nc(-c3ccc(-c4ccc(N5c6ccccc6[Si](c6ccccc6)(c6ccccc6)c6ccccc65)cc4)cc3)n2)cc1` returned a photoluminescence quantum yield under setting [1] of 0.38.

On to `CC1(C)Oc2c(c3nc4ccccc4nc3c3ccccc23)CC1Br` (stereo not drawn), for which the photoluminescence quantum yield by setting is: (in C1CCCCC1) 0.28; (in C1CCOC1) 0.39; (in C1COCCO1) 0.44; (in CC#N) 0.49; (in CC(C)O) 0.39; (in CCCCCC) 0.25. Also, the photoluminescence quantum yield (in CN(C)C=O) is 0.34, the photoluminescence quantum yield (in CO) was 0.57 and the photoluminescence quantum yield (in c1ccccc1) worked out at 0.28.

With `COc1ccc(-c2n[n+]3c(s2)N=C(c2ccccc2)O[B-]3(F)F)cc1`, the photoluminescence quantum yield (in Cc1ccccc1) was found to be 0.16.

In the case of `O=C1c2ccccc2C(=O)c2cc(-c3ccc(N(c4ccccc4)c4ccccc4)cc3)ccc21`, the photoluminescence quantum yield is 0.392 (in CCCCCC); 0.0001 (in CCOC(C)=O); 0.0129 (in CCOCC); 0.092 (in Cc1ccccc1); 0.326 (in ClC(Cl)(Cl)Cl); 0 (in ClCCl).

On to `CC1(C)C(/C=C/C2=C(Cl)C(=C/C=C3/N(CCCS(=O)(=O)[O-])c4ccccc4C3(C)C)/CCC2)=[N+](CCCS(=O)(=O)[O-])c2ccccc21`, for which, where the note is “in CO”, the photoluminescence quantum yield was determined as 0.05.

As to `COc1ccc(C2=CC(c3ccc4ccccc4c3)=[O+][B-](C(C)=O)(C(C)=O)O2)cc1`, the photoluminescence quantum yield is, setting by setting: (in CC#N) 0.6; (in ClC(Cl)(Cl)Cl) 0.8.

On to `N#C/C(=C/Nc1ccc(C#N)cc1)c1nc(-c2ccccc2)cs1`, for which the photoluminescence quantum yield is, setting by setting: (in CC#N) 0; (in CCO) 0.0001; (in CN(C)C=O) 0.0001; (in Cc1ccccc1) 0.0001; (in ClCCl) 0.0001.

For `c1ccc(-c2nn(-c3ccccc3)c3nc4ccc(N(c5ccccc5)c5cccc6ccccc56)cc4cc23)cc1`, the photoluminescence quantum yield by setting is: (in C1CCCCC1) 0.57; (in C1CCOC1) 0.57; (in CC#N) 0.41; (in CC(C)=O) 0.53; (in CCCCCl) 0.56; (in CCCCOCCCC) 0.56. The photoluminescence quantum yield (in CN(C)C=O) was 0.47.
